What was measured:
HLA A*3001 = HLA A*3001 (Homo sapiens, UniProt P04439, D140H/D185E/E176W/F33S/G80R/H175R/K168Q/R138E/R41S); assay: biochemical; type: binding
HLA A*3201 = HLA A*3201 (Homo sapiens, UniProt P04439, A270S/D101S/D185E/E176V/E277Q/F133L/G103R/G107R/G231S/H175R/I121M/I218V/I322F/K168Q/L105A/L300P/L318F/M331R/P208A/P217A/Q94H/R106L/R138Q/S129P/T104I/T323A/T345S/V100E/V321M/V358M); assay: biochemical; type: binding
HLA A*6802 = HLA A*6802 (Homo sapiens, UniProt P04439, A269V/D140Y/D185E/E176V/E277Q/E87N/F33Y/G231S/I121R/I166T/I218V/L180W/L300P/L318F/N151K/P208A/P217A/Q86R/R138H/R169H/S129P/T345S/V36M); type: binding
HLA B*0702 = HLA B*0702 (Homo sapiens, UniProt P01889); type: binding; details: positional scanning combinatorial 9-mer library; normalized to 1.0 for the best residue at each position
HLA B*0801 = HLA B*0801 (Homo sapiens, UniProt P01889, A93T/A95T/D138N/E176V/E187T/K202T/Q94N/R180D/S35A/V36M/Y33D/Y91F); assay: biochemical; type: binding
HLA B*1501 = HLA B*1501 (Homo sapiens, UniProt P01889, A329T/A93T/A95T/C349S/D201E/D98Y/E187L/E204Q/E69M/E70A/K202T/N87E/Q94N/R155S/R180W/S121R/S35A/S48A/V306I/V36M/Y140S/Y91S); assay: biochemical; type: binding
HLA B*1503 = HLA B*1503 (Homo sapiens, UniProt P01889, A329T/A93T/A95T/C349S/D201E/D98Y/E187L/E204Q/K202T/N87E/Q94N/R155S/R180L/S121R/S35A/V306I/V36M/Y140S/Y91S); assay: biochemical; type: binding
HLA B*2705 = HLA B*2705 (Homo sapiens, UniProt P01889, D138H/D201E/E176V/E204Q/G107R/H137Y/K202T/N104T/N87E/Q56L/Q94K/R106L/R155S/R180L/S101D/S121N/S48T/Y140D/Y33H/Y91C); type: binding; details: positional scanning combinatorial 9-mer library; normalized to 1.0 for the best residue at each position
HLA B*3501 = HLA B*3501 (Homo sapiens, UniProt P01889, A329T/A93T/A95T/C349S/D201E/D98Y/E176V/E187L/E204Q/E69T/I218V/K202T/L119I/Q94N/R155S/R180L/S121R/S35A/S48A/T118I/V127L/V306I/V36M/Y140S/Y91F); type: binding
HLA B*5101 = HLA B*5101 (Homo sapiens, UniProt P01889, A329T/A93T/A95T/C349S/D138N/D201E/D98Y/E187L/E204Q/E69T/G107R/I218V/K202T/L105A/L119W/N104I/Q94N/R106L/R155S/R180L/S101N/S121T/S35A/S48A/V306I/V36M/Y195H/Y91F); type: binding
HLA B*5301 = HLA B*5301 (Homo sapiens, UniProt P01889, A329T/A93T/A95T/C349S/D201E/D98Y/E176V/E187L/E204Q/E69T/G107R/I218V/K202T/L105A/L119I/N104I/Q94N/R106L/R155S/R180L/S101N/S121R/S35A/S48A/T118I/V127L/V306I/V36M/Y140S/Y91F); type: binding
HLA B*5401 = HLA B*5401 (Homo sapiens, UniProt P01889, A329T/C349S/D138N/D201E/E176V/E187T/E204Q/E69G/I76V/K202T/L119W/R155S/R180L/S121T/S35A/S48A/V127L/V306I/V36M/Y140L); type: binding
HLA B*5801 = HLA B*5801 (Homo sapiens, UniProt P01889, A329T/C349S/D201E/D98Y/E176V/E187L/E204Q/E69T/G107R/I218V/I90N/K202T/L105A/L119I/N104I/N87E/Q89R/Q94S/R106L/R155S/R180L/R86G/S101N/S121R/S35A/S48A/T118I/V127L/V306I/V36M/Y140S/Y91M); type: binding
HLA B*5802 = HLA B*5802 (Homo sapiens, UniProt P01889, A329T/C349S/D201E/D98Y/E176V/E187L/E204Q/E69T/G107R/I218V/I90N/K202T/L105A/N104I/N87E/Q89R/Q94S/R106L/R155S/R180L/R86G/S101N/S121W/S35A/S48A/V127L/V306I/V36M/Y140S/Y91M); type: binding
H-2 D^b = H-2 D^b (Mus musculus, UniProt P01899); type: binding
H-2 D^b, sequence (P01887 21-119): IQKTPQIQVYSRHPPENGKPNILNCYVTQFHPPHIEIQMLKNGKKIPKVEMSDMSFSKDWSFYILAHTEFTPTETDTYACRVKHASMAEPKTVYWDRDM
H-2 D^b, sequence (P01899 25-362): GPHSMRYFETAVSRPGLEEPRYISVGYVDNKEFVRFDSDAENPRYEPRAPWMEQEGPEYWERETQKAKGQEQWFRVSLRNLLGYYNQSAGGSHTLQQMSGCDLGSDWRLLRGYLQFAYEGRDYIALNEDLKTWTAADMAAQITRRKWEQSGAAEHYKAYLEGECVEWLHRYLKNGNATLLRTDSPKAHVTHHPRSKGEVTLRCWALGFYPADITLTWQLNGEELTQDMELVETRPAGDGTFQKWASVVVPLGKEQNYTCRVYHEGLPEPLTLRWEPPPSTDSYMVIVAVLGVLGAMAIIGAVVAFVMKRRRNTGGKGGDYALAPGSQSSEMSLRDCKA

H-2 D^d = H-2 D^d (Mus musculus, UniProt P01900); type: binding
H-2 D^d, sequence (P01900 whole entry, looked up): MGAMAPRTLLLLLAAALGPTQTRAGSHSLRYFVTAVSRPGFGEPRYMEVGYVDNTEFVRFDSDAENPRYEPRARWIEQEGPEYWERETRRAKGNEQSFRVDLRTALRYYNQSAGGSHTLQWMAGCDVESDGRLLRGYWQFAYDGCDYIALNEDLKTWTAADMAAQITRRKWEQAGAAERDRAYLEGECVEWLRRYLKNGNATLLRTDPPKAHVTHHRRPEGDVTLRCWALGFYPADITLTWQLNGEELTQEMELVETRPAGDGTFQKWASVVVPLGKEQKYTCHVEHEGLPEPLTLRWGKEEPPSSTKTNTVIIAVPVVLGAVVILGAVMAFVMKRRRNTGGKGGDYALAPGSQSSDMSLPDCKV

H-2 K^k = H-2 K^k (Mus musculus, UniProt P04223); type: binding
H-2 K^k, sequence (P01887 21-119): as the sequence (P01887 21-119) above
H-2 K^k, sequence (P04223 22-369): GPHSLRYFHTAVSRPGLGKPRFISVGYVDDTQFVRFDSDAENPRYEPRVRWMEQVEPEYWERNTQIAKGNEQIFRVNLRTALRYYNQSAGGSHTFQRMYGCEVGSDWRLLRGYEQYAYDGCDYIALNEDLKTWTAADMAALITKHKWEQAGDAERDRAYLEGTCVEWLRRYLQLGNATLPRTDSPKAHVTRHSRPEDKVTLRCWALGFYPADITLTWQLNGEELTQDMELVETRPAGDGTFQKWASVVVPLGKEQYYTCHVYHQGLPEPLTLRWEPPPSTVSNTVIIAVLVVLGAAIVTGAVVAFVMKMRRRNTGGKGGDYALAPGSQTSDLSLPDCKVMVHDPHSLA

HLA A*0201 = HLA A*0201 (Homo sapiens, UniProt P04439, D140Y/D185E/D98H/E176V/E277Q/G131W/G231S/I119V/I121R/I166T/I218V/L300P/L318F/N151K/N90K/P208A/P217A/Q86G/Q94H/R138H/R169H/T345S); details: positional scanning combinatorial 9-mer library; normalized to 1.0 for the best residue at each position

Sequence | Normalized average relative binding affinity (ARB), HLA A*3001 (HLA A*3001) | Normalized average relative binding affinity (ARB), HLA A*3201 (HLA A*3201) | Normalized average relative binding affinity (ARB), HLA A*6802 (HLA A*6802) | Normalized average relative binding affinity (ARB), HLA B*0702 (HLA B*0702) | Normalized average relative binding affinity (ARB), HLA B*0801 (HLA B*0801) | Normalized average relative binding affinity (ARB), HLA B*1501 (HLA B*1501) | Normalized average relative binding affinity (ARB), HLA B*1503 (HLA B*1503) | Normalized average relative binding affinity (ARB), HLA B*2705 (HLA B*2705) | Normalized average relative binding affinity (ARB), HLA B*3501 (HLA B*3501) | Normalized average relative binding affinity (ARB), HLA B*5101 (HLA B*5101) | Normalized average relative binding affinity (ARB), HLA B*5301 (HLA B*5301) | Normalized average relative binding affinity (ARB), HLA B*5401 (HLA B*5401) | Normalized average relative binding affinity (ARB), HLA B*5801 (HLA B*5801) | Normalized average relative binding affinity (ARB), HLA B*5802 (HLA B*5802) | Normalized average relative binding affinity (ARB), H-2 Db (H-2 D^b) | Normalized average relative binding affinity (ARB), H-2 Dd (H-2 D^d) | Normalized average relative binding affinity (ARB), H-2 Kk (H-2 K^k) | Normalized average relative binding affinity (ARB), HLA A*0201 (HLA A*0201)
XQXXXXXXX [3064.0034] | 0.33 | 0.32 | 0.0081 | 0.011 | 0.13 | 1.0 | 1.0 | 0.016 | 0.039 | 0.11 | 0.047 | 0.0034 | 0.024 | 0.21 | 1.0 | 0.015 | 0.053 | 0.14
XRXXXXXXX [3064.0035] | 0.048 | 0.0090 | 0.0069 | 0.0078 | 0.30 | 0.024 | 0.059 | 1.0 | 0.068 | 0.022 | 0.0045 | 0.0042 | 0.017 | 0.030 | 0.036 | 0.028 | 0.0071 | 0.0016
XSXXXXXXX [3064.0036] | 0.38 | 0.21 | 0.27 | 0.0043 | 0.13 | 0.59 | 0.13 | 0.012 | 0.059 | 0.10 | 0.031 | 0.050 | 1.0 | 1.0 | 0.80 | 0.022 | 0.014 | 0.0092
XTXXXXXXX [3064.0037] | 0.77 | 1.0 | 0.63 | 0.014 | 0.038 | 0.29 | 0.026 | 0.0033 | 0.042 | 0.042 | 0.022 | 0.028 | 0.71 | 0.79 | 0.22 | 0.019 | 0.0085 | 0.038
XVXXXXXXX [3064.0038] | 1.0 | 0.23 | 1.0 | 0.086 | 0.17 | 0.39 | 0.017 | 0.0016 | 0.062 | 0.10 | 0.10 | 0.024 | 0.14 | 0.12 | 0.20 | 0.016 | 0.0062 | 0.098
XWXXXXXXX [3064.0039] | 0.26 | 0.034 | 0.022 | 0.0052 | 0.024 | 0.027 | 0.0038 | 0.0022 | 0.015 | 0.050 | 0.0054 | 0.0040 | 0.0033 | 0.098 | 0.10 | 0.061 | 0.0069 | 0.0024
